Earlier results as cited in US9426985B2, “Compositions and methods to modulate the rate of EBIS production from dithiocarbamate fungicides” (Dow Agrosciences LLC, priority 2012, dated 2016).

Assays:
[1] = tomato leaves

**Q.** For `S=C1SSC2=NCCN12` [EBIS, ethylene bisisthiocyanate sulfide], which “half-life on the leaf surface” value is on record?
**A.** Its value is “less than 2 days”.

**Q.** For mancozeb, which “time to peak EBIS levels after application” value [1] is on record?
**A.** The value was “about two”.
